In the OPERA property sets (Mansouri et al. 2018):

Row | SMILES | logP
1 | Cc1cc2c(OCC(O)CNC(C)C)cccc2[nH]1 (configuration not stated) | 2.3
2 | CC(=O)Nc1ccc(OCC(O)CNCC(O)COc2ccccc2)cc1 (configuration not stated) | 1.39
3 | CC(=O)c1cc2cccc(OCC(O)CNC(C)C)c2o1 (configuration not stated) | 2.02
4 | COc1ccccc1OCC(O)CNC(C)C (configuration not stated) | 1.69
5 | CC(C)NCC(O)COc1ccccc1C1CC1 (configuration not stated) | 3.07
6 | CC(C)NC[C@H](O)COc1ccc(OCCOCCc2ccc(F)cc2)cc1 | 3.7
7 | CC(C)NCC(O)COc1ccc(CCOCC2CC2)cc1 (configuration not stated) | 2.81
8 | CC(C)NCC(O)COc1ccc(COCCOC(C)C)cc1 (configuration not stated) | 1.87
9 | Cc1ccccc1OCC(O)CNCC(O)COc1ccccc1C (configuration not stated) | 3.67
10 | CNC(=O)COc1ccccc1OCC(O)CNC(C)(C)C (configuration not stated) | 1.36
11 | C#CCOc1ccccc1OCC(O)CNC(C)(C)C (configuration not stated) | 2.32
12 | CC(=O)Nc1ccc(OCC(O)CNC(C)C)c(C(C)=O)c1 (configuration not stated) | 0.94
